# Publication PMC11094368, “Modulating mycobacterial envelope integrity for antibiotic synergy with benzothiazoles” (Life Science Alliance, 2024)
# Tests used:
# Assay in all cases: microbe, parasite or virus in culture
# M. marinum = tested on: T1, M. marinum; design: Resazurin microtiter plate assay (REMA), fluorescence; MIC90 growth inhibition in HdB medium with Tween-80, 30 °C; conditions: Mycobacterium marinum, 96 h; MIC90, HdB medium with Tween-80
# T1 construct: M^USA (wild type)
# Protocol: The resazurin microtiter plate assay (REMA) was used to determine minimal inhibitory concentrations (MIC) of the compound toward mycobacterial species ([Palomino et al, 2002]). Selected compounds or antibiotics were diluted in the bacterial growth medium as twofold serial dilutions in a 96-well plate. Bacteria were routinely grown until the mid-logarithmic phase, harvested by centrifugation (3,000g, 10 min), washed in PBS supplemented with 0.02% tyloxapol, resuspended in the growth medium, and added to the well plate containing compound dilutions, to achieve the final OD600 of 0.001 per well. […] When the color conversion of the dye was observed, the fluorescence was measured using a BioTek plate reader (Synergy H1), bottom reading mode, and excitation 560 nm/emission 590 nm. The MIC of compounds toward E. coli, Bacillus subtilis, K. pneumoniae, and A. baumannii was determined by tracking changes in the OD600. […] Plates were sealed and incubated at 37°C with 3 mm continuous linear shaking in a BioTek plate reader (Synergy H1), and the bacterial growth was tracked by measuring the OD600 every 15 min. […] Thus, we evaluated compounds from the benzothiazole library for their in vitro activity using the HdB medium with Tween-80 by REMA (Table S6).
# [1] = tested on: T2, Acinetobacter baumannii 1757; design: species or system E. coli, B. subtilis, K. pneumoniae, A. baumannii; bacterial growth inhibition in LB, twofold dilutions, OD600 tracking; conditions: Acinetobacter baumannii, 1757, read-out: MIC50
# T2 construct: 1757
# [2] = tested on: T3, Acinetobacter baumannii LMG01041; design: species or system E. coli, B. subtilis, K. pneumoniae, A. baumannii; bacterial growth inhibition in LB, twofold dilutions, OD600 tracking; conditions: Acinetobacter baumannii, LMG01041, read-out: MIC50
# T3 construct: LMG01041
# Bacillus subtilis 168 = tested on: T4, Bacillus subtilis 168; design: species or system E. coli, B. subtilis, K. pneumoniae, A. baumannii; bacterial growth inhibition in LB, twofold dilutions, OD600 tracking; conditions: Bacillus subtilis, 168, read-out: MIC50
# T4 construct: 168
# Escherichia coli K12 = tested on: T5, Escherichia coli K12; design: species or system E. coli, B. subtilis, K. pneumoniae, A. baumannii; bacterial growth inhibition in LB, twofold dilutions, OD600 tracking; conditions: Escherichia coli, K12, read-out: MIC50
# T5 construct: K12
# [3] = tested on: T6, Klebsiella pneumoniae LMG20218; design: species or system E. coli, B. subtilis, K. pneumoniae, A. baumannii; bacterial growth inhibition in LB, twofold dilutions, OD600 tracking; conditions: Klebsiella pneumoniae, LMG20218, read-out: MIC50
# T6 construct: LMG20218
# [4] = tested on: T7, Mycobacterium abscessus 144C; design: resazurin microtiter plate assay (REMA), growth inhibition in 7H9 ADS glycerol tyloxapol; conditions: Mycobacteroides abscessus, 144C, 48 h, read-out: MIC50
# T7 construct: 144C
# [5] = tested on: T8, Mycobacterium abscessus RIVM; design: resazurin microtiter plate assay (REMA), growth inhibition in 7H9 ADS glycerol tyloxapol; conditions: Mycobacteroides abscessus, 48 h, read-out: MIC50
# T8 construct: RIVM
# [6] = tested on: T9, Mycobacterium smegmatis MC^2-155; design: resazurin microtiter plate assay (REMA), growth inhibition in 7H9 ADS glycerol tyloxapol; conditions: Mycolicibacterium smegmatis, 24 h, read-out: MIC50
# T9 construct: MC2-155
SMILES,MIC90 (M. marinum) [µM],IC50 [1] [µM],IC50 [2] [µM],IC50 (Bacillus subtilis 168) [µM],IC50 (Escherichia coli K12) [µM],IC50 [3] [µM],IC50 [4] [µM],IC50 [5] [µM],IC50 [6] [µM]
CCOc1ccc2nc(N(Cc3ccccc3OC)C(C)=O)sc2c1 [BT-37],0.3,> 40,> 40,> 40,> 40,> 40,> 40,> 40,> 40
"CCOc1ccc2nc(N(Cc3ccccc3)C(C)=O)sc2c1 [BT-08, N-Benzyl-N-(6-ethoxybenzo[d]thiazol-2-yl)acetamide]",,> 40,> 40,> 40,> 40,> 40,> 40,> 40,
